Experimental data published in patent US7511076B2, “Nitrosation-inducible inhibitors biological macromolecules” (New York University, priority 2000, dated 2009).

Columns and labels:
[1] = target: T1, RNA polymerase from E. coli (RNAP) (Escherichia coli, UniProt P0A7Z4+P0A8T7+P0A8V2); assay: *NO-dependent RNAP inactivation assay (in vitro transcription); assay type: biochemical; details: for Effect on transcription by RNAP, agent alone: agent added alone (*NO low dose without ANSA; ANSA without *NO); for *NO-dependent inactivation of RNAP (transcription) in the presence of ANSA: RNAP + ANSA treated with low dose of *NO
T1 construct: made in house
T1 sequence (P0A8V2 whole entry): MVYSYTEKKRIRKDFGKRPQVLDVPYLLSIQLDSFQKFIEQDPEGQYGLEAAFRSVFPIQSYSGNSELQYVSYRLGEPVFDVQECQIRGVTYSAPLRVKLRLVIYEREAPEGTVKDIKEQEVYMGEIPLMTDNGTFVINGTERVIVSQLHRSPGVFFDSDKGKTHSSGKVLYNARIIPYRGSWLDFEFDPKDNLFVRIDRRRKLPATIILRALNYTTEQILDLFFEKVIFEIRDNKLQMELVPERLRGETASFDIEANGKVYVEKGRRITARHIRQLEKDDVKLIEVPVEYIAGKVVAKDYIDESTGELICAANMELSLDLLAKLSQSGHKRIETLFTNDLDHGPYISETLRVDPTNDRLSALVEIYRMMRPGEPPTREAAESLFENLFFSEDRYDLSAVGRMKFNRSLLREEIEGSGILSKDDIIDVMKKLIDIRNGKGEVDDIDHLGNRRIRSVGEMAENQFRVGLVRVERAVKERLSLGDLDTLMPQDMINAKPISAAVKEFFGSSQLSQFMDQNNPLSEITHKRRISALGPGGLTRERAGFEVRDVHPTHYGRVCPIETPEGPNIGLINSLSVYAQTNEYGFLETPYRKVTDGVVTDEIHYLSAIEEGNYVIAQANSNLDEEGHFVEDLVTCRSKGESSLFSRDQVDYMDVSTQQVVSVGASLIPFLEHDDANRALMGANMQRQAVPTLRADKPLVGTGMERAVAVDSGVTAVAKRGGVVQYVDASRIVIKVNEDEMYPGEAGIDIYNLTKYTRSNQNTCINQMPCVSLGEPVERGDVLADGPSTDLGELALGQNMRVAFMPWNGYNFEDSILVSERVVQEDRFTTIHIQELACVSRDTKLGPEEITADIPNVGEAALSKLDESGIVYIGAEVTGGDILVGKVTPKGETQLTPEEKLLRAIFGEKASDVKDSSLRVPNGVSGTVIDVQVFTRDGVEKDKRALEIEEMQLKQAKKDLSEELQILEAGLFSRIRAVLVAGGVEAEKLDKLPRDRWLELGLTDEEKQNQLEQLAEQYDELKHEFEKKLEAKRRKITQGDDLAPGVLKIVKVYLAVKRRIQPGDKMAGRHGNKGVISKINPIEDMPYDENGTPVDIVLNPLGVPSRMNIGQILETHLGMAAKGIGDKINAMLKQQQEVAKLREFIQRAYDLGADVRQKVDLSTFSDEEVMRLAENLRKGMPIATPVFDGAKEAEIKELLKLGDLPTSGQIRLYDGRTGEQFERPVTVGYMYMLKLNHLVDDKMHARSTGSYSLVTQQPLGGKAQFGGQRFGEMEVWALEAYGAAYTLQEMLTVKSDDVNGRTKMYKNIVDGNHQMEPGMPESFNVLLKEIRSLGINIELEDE
T1 sequence (P0A8T7 whole entry): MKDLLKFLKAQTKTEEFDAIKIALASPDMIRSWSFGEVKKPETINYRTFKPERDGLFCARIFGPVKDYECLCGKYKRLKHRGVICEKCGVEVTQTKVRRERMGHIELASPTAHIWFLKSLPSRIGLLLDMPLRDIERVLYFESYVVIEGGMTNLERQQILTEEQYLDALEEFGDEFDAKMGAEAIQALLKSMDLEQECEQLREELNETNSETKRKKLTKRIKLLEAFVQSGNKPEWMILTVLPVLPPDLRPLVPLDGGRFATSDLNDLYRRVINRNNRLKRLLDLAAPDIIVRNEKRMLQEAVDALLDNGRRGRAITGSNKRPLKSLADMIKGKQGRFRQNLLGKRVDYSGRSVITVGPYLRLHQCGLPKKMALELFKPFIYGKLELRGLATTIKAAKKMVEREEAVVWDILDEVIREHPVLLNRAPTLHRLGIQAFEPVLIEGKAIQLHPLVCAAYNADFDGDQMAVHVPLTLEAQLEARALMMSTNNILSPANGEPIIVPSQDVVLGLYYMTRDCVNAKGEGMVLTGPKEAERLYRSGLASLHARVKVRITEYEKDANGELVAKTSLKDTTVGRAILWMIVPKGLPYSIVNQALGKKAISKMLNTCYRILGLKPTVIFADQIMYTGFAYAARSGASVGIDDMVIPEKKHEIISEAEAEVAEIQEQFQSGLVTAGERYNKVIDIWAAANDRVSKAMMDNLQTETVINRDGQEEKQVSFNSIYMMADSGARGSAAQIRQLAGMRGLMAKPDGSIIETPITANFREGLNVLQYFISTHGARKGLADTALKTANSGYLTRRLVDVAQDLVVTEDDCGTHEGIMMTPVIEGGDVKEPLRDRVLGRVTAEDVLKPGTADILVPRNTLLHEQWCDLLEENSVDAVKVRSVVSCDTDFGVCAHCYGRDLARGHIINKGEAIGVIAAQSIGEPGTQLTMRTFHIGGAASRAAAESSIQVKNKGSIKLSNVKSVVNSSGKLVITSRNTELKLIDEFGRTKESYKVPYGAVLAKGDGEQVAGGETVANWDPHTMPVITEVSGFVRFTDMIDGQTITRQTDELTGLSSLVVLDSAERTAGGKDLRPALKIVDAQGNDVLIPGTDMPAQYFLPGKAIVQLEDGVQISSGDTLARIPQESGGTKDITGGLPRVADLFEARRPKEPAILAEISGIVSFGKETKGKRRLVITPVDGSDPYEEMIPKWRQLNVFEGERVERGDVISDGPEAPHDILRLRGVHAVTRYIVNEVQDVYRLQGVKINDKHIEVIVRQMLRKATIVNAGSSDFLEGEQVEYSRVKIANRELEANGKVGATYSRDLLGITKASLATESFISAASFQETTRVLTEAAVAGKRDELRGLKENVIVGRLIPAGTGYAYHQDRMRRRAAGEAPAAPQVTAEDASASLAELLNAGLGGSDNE
T1 sequence (P0A7Z4 whole entry): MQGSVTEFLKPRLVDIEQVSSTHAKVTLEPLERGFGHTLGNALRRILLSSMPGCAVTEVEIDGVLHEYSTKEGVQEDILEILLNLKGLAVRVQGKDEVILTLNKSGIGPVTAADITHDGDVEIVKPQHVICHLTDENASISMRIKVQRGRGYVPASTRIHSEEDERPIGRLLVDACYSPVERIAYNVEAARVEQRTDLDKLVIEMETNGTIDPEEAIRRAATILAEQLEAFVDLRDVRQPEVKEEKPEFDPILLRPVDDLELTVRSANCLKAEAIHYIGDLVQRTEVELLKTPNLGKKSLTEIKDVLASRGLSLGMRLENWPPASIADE
T1 sequence (P0A800 2-91 partner limits assumed): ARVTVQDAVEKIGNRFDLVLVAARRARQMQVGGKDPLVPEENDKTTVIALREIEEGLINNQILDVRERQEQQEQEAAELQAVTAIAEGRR
T1 sequence (P00579 whole entry partner): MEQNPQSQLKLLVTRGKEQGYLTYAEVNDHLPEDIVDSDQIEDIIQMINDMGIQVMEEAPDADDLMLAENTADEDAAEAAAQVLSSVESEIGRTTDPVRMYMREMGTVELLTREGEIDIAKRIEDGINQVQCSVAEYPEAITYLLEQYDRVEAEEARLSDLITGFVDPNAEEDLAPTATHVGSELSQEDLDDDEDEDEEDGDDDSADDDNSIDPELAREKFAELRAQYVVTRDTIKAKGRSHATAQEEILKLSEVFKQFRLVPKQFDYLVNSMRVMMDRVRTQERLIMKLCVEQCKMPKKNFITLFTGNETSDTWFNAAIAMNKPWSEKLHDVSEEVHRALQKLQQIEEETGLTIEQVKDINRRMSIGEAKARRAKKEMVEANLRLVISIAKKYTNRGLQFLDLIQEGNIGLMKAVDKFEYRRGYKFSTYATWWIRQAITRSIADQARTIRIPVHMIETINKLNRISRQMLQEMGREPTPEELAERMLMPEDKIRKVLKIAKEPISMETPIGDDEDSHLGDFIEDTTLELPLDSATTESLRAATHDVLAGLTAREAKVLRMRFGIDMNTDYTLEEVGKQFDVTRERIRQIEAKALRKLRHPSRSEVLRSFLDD
Method: Transcription reactions (total volume=20 μl) were performed in a buffer containing 20 mM Tris HCL, pH 7.5, 10 mM MgCl2, 50 mM KCl, 8 μM ATP, GTP, UTP, 1.8 μM CTP, and 0,15 μM [α-^32P] CTP (3000 Ci/mmol) for 5 minutes at 37° C. RNAP was purified as described (Nudler et al, 1996). The DNA template containing the A1 promoter of phage T7 was obtained by polymerase chain reaction from the plasmid pENtR2 (Nudler et al, 1996).
Hydrophobic Amines (ANSA) as *NO-Dependent Enzyme Inhibitors. To investigate whether this mechanism might be functioning in proteins other than BSA, the effect of nitrosation on a completely distinct protein—RNA polymerase from E. coli (RNAP)—was examined. The experiments were done by exposing RNAP to a low dose of *NO, and then adding the DNA template and ribonucleotide substrates to initiate the transcription reaction. For a control, a solution of NO2^− for the *NO was substituted by oxidizing *NO prior to the experiment. […] The *NO-dependent inhibition of RNAP was complex. […] Shorter transcripts represent paused RNAP molecules resulting from the limited amount of CTP in the reaction. […] The complex inhibitory effect of nitrosation on RNAP is not surprising since many potential nitrosation targets are distributed in structurally and functionally distinct regions of the enzyme (Zhang et al, 1999).
To determine whether this process could also occur with RNAP, the mixture of RNAP+ANSA II was treated with *NO (FIG. 3, lane 4).
To further test the autocatalytic mechanism of enzyme inactivation and the key role of nitrosation-azocoupling in this process additional ANSA was synthesized and were tested in the *NO-dependent RNAP inactivation assay (FIG. 3). […] ANSA VI and ANSA VII, with methyl and peptidyl substitutions in the NH2 group, were incapable of forming aryldiazonium cation upon nitrosation. […] This experiment raises the possibility that hydrophobic amines could be used as efficient tools for the *NO-dependent inactivation of enzymes.

[2] = test system: Bacillus subtilis Strain IS75; assay: Bactericidal effect of ANSA derivatives on B. subtilis cultures (CFU count); assay type: cell-based; details: 20 μg/ml ANSA, 30 minutes, room temperature, start 10^7 CFU ml^−1, *NO and/or PTIO 20 μM where indicated; for CFU, B. subtilis, rich media: LB broth; for CFU, B. subtilis, minimal media: Spizizen's minimal media
Method: (§1) ANSA Derivatives as a New Class of Antibiotics and Antineoplastic Drugs. ANSA derivatives (shown in FIG. 9) were tested for their cytotoxic capabilities using wild type strains of Gram-negative and Gram-positive bacterial (Escherichia coil strain BL21 and Bacillus subtilis Strain IS75).

[3] = test system: Escherichia coil strain BL21 and Bacillus subtilis Strain IS75; assay: Bactericidal effect on Gram-negative and Gram-positive bacteria; assay type: cell-based, Escherichia coli; Bacillus subtilis; details: for Effect of the additive on the bactericidal effect of ANSA (CFU): NO trap or water solution of NO added with ANSA
Method: as §1
In order to be nitrosated, peptidyl-ANSA must undergo cleavage of the C-terminal amino acid residue to relieve the R3 NH2 group. Taking advantage of the chromogenic nature of ANSA compounds, it was possible to determine whether the peptidyl-ANSA were transported in the cell and processed by proteolysis.

[4] = test system: Escherichia coil strain BL21; assay: Bactericidal effect of ANSA derivatives on E. coli cultures (CFU count); assay type: cell-based, Escherichia coli; details: 20 μg/ml ANSA, 30 minutes, room temperature, start 10^7 CFU ml^−1, *NO and/or PTIO 20 μM where indicated; for CFU, E. coli, rich media: LB broth; for CFU, E. coli, minimal media: M9 minimal media
Method: as §1

BSA = target: T2, BSA (Bos taurus, UniProt P02769); assay: Complex formation and nitrosation of ANSA in the presence of BSA (gel filtration, fluorescence, TLC); assay type: binding; details: for Nitrosation of ANSA in the ANSA I+ANSA II+BSA mixture: low dose of *NO (5 molar excess), aerobic
T2 construct: purchased Sigma
T2 sequence (P02769 25-607): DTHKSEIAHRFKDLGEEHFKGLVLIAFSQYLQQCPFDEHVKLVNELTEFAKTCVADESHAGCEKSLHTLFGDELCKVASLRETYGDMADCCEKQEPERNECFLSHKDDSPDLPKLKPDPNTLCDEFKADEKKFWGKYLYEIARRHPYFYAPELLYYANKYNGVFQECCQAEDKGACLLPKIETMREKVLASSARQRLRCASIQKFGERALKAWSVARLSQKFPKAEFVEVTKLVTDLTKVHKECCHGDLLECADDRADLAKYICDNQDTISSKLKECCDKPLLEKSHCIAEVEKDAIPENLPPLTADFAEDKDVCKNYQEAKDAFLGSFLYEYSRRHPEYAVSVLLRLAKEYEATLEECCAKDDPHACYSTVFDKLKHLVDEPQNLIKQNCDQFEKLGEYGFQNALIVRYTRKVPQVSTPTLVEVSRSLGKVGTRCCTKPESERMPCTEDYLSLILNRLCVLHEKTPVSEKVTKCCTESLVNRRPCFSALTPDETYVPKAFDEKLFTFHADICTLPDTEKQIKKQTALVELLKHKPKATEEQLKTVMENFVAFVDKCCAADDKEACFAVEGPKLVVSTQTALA
Method: ANSA were synthesized from 5-nitronaphthalenesulphoacids and 5-aminonaphthalenesulphoacids (Reahim). TLC of ANSA and their derivatives was carried out on Silica gel 60 plates (Merck) in the hexane/ethyl acetate system. Gel filtration was performed using the Sephadex G25M size-exclusion column (Pharmacia). Fluorescence of ANSA was observed and measured under 365 nm UV light using BioRad Fluor-S MultiImager system.
The present inventors first synthesized two ANSA with opposite hydrophobic properties (FIG. 12B). In the low-hydrophobic ANSA molecule (ANSA I), the R1 group is —CH3 and the R2 group is —H. The highly hydrophobic ANSA (ANSA II) has C3H7 for both R1 and RExperiments were done by mixing an aqueous solution of ANSA with the test protein, and then initiating the nitrosation reaction by the aerobic addition of an aqueous solution of *NO. Two initial concentrations of *NO were used at 25 molar excess over ANSA (high dose) and a 5 molar excess (low dose).

[5] = test system: prostatic carcinoma cell lines DU-145 and PC-3 and normal human fibroblasts (WI-38); assay: MTS cytotoxicity assay (CellTiter 96); details: for Cytotoxic effect / cell survival (MTS, in words): 0.1-100 μM, 72 h, presence or absence of *NO; for Effect of the additive on ANSA cytotoxicity: NO trap or general NOS inhibitor added
Method: A second preliminary study used two human hormone-independent prostatic carcinoma cell lines DU-145 and PC-3 (ATCC, Virginia) and normal human fibroblasts (WI-38). The MTS cytotoxicity assay (“CellTiter 96”, Promega) was used to measure the cytotoxicity of several ANSA compounds in the presence or absence of *NO. All compounds tested in vitro were dissolved in DMSO ([…]) and subsequently diluted in the culture medium before treatment of the cultured cells. Tested cells were plated in 96-well plates at a density of 4×10^3 cells/well/200 μL of the proper culture medium and treated with the compounds at concentrations of 0.1-100 μM. In parallel, the cells were treated with 1% of DMSO as control. MTS assay was performed 72 h later according to instructions provided by the manufacturer (Promega). This assay is based on the cellular conversion of the tetrazolium salt, MTS[3-(4,5-dimethylthiazol-2-yl)-5-(3-carboxymethoxyphenyl)-2-(4-sulfophenyl)-2H-tetrazolium, inner salt], into a formazan that is soluble in cell culture medium and is measured at 490 nm directly in 96-well assay plates without additional processing. Absorbency is directly proportional to the number of living cells in culture.
In order to be nitrosated, peptidyl-ANSA must undergo cleavage of the C-terminal amino acid residue to relieve the R3 NH2 group.

SMILES	CFU, B. subtilis, rich media [2]	CFU, B. subtilis, minimal media [2]	CFU, E. coli, rich media [4]	CFU, E. coli, minimal media [4]	*NO-dependent inactivation of RNAP (transcription) in the presence of ANSA [1]	also measured
[N]=O [*NO, Nitric oxide, reference compound]	≈10^6 CFU ml^−1	≈10^6 CFU ml^−1	≈10^6 CFU ml^−1	≈10^6 CFU ml^−1	–	Effect on transcription by RNAP, agent alone [1]: partially inhibited transcription; Effect of the additive on the bactericidal effect of ANSA (CFU) [3]: restored the bactericidal effect
CN(C)S(=O)(=O)c1cccc2c(N)cccc12 [ANSA III]	–	–	–	–	partial negative effect	–
CCCN(CCC)S(=O)(=O)c1cccc2c(N)cccc12 [ANSA II]	–	–	–	–	completely inactivated RNAP	Effect on transcription by RNAP, agent alone [1]: did not affect transcription; Formation of a stable complex with BSA (BSA; gel filtration analysis): able to form a stable complex with BSA; Nitrosation of ANSA in the ANSA I+ANSA II+BSA mixture (BSA): nitrosated
Nc1cccc2c(S(=O)(=O)N3CCOCC3)cccc12 [ANSA IV]	–	–	–	–	partial negative effect	–
CNS(=O)(=O)c1cccc2c(N)cccc12 [ANSA I]	≈10^7 CFU ml^−1	≈10^7 CFU ml^−1	10^6-10^7 CFU ml^−1	≈10^7 CFU ml^−1	had no effect on transcription	Nitrosation of ANSA in the ANSA I+ANSA II+BSA mixture (BSA): intact; Cytotoxic effect / cell survival (MTS, in words) [5]: not
CCCCCNS(=O)(=O)c1cccc2c(NC)cccc12 [ANSA VIII]	≈10^7 CFU ml^−1	≈10^7 CFU ml^−1	≈10^7 CFU ml^−1	≈10^7 CFU ml^−1	–	Bactericidal effect / cell survival (in words) [3]: had no effect on cell survival; Cytotoxic effect / cell survival (MTS, in words) [5]: had no effect on cell survival
CCCCCNS(=O)(=O)c1cccc2c(NC(=O)C(CCCNC(=N)N)NC(=O)C(CCCNC(=N)N)NC(=O)CNC(=O)CN)cccc12 (stereo not drawn) [ANSA VII]	–	–	0 CFU ml^−1	–	unable to enhance inactivation of RNAP	Bactericidal effect / cell survival (in words) [3]: strongest bactericidal effect; Cytotoxic effect / cell survival (MTS, in words) [5]: strong cytotoxic effect
CNc1cccc2c(S(=O)(=O)N(C)C)cccc12 [ANSA VI]	–	–	–	–	unable to enhance inactivation of RNAP	–
CCCCCNS(=O)(=O)c1cccc2c(N)cccc12 [ANSA V]	10^2-10^3 CFU ml^−1	10^2 CFU ml^−1	0-20 CFU ml^−1	≈10^3 CFU ml^−1	completely inactivated RNAP	–
COC(=O)[C@@H](N)CCCNC(=N)N[N+](=O)[O-] [L-NAME, reference compound]	–	–	–	–	–	Effect of the additive on ANSA cytotoxicity [5]: decreased the cytotoxicity
O=NO [NO2^−, nitrite, reference compound]	–	–	–	–	–	Effect on transcription by RNAP, agent alone [1]: had no effect
CC1(C)N([O])C(c2ccccc2)=[N+]([O-])C1(C)C [PTIO, 2-phenyl-4,4,5,5-tetramethylimidazoline-1-oxyl-3-oxide, reference compound]	–	–	–	–	–	Effect of the additive on the bactericidal effect of ANSA (CFU) [3]: almost completely abolished the inhibitory effect; Effect of the additive on ANSA cytotoxicity [5]: decreased the inhibitory effect
